Source: the supplement of paper PMC10307832

Assays:
Assay in all cases: relative viability (nuclei count vs DMSO), 5 days (fraction); higher = more cells survive
[1] = compound: CCn1c(-c2nonc2N)nc2c(C#CC(C)(C)O)ncc(OC[C@H]3CCCNC3)c21 + O=C(CCCCCCC(=O)Nc1ccccc1)NO [Vorinostat] (partner 1 µM)
Summary of the method: (§1)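 Lung cancer cell lines in 1536-well plates got either a single drug or a fixed anchor-drug dose together with five library-drug doses (not always all listed) in √10 steps, by pin tool, on the day after seeding. Nuclei were counted after 5 days, and relative viability is the treated-to-vehicle ratio of nuclei counts. Values are medians of duplicate plates.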

[2] = compound: CCn1c(-c2nonc2N)nc2c(C#CC(C)(C)O)ncc(OC[C@H]3CCCNC3)c21 + Nc1ncn([C@H]2C[C@H](O)[C@@H](CO)O2)c(=O)n1 [Decitabine] (partner 2 µM)
Summary of the method: as §1

BAM7 + Vorinostat = compound: CCOC1=CC=CC=C1N=NC2=C(NN(C2=O)C3=NC(=CS3)C4=CC=CC=C4)C [BAM7] + O=C(CCCCCCC(=O)Nc1ccccc1)NO [Vorinostat] (partner 1 µM)
Summary of the method: as §1

[3] = compound: CCn1c(-c2nonc2N)nc2c(C#CC(C)(C)O)ncc(OC[C@H]3CCCNC3)c21 + Cc1nc(Nc2ncc(C(=O)Nc3c(C)cccc3Cl)s2)cc(N2CCN(CCO)CC2)n1 [Dasatinib] (partner 0.075 µM)
Summary of the method: as §1

Cell Line | relative viability ([1]; first compound 0.01 µM) | relative viability ([1]; first compound 0.03162 µM) | relative viability ([1]; first compound 0.1 µM) | relative viability ([1]; first compound 0.3162 µM) | relative viability ([1]; first compound 1 µM) | relative viability ([2]; first compound 0.01 µM) | relative viability ([2]; first compound 0.03162 µM) | relative viability ([2]; first compound 0.1 µM) | relative viability ([2]; first compound 0.3162 µM) | relative viability ([2]; first compound 1 µM) | relative viability (BAM7 + Vorinostat; first compound 0.5 µM) | relative viability (BAM7 + Vorinostat; first compound 5 µM) | relative viability (BAM7 + Vorinostat; first compound 15.81 µM) | relative viability (BAM7 + Vorinostat; first compound 50 µM) | relative viability ([3]; first compound 0.01 µM) | relative viability ([3]; first compound 0.03162 µM) | relative viability ([3]; first compound 0.1 µM) | relative viability ([3]; first compound 0.3162 µM) | relative viability ([3]; first compound 1 µM)
COR-L 105 | 0.913 | 0.804 | 0.915 | 0.724 | 0.707 | 0.651 | 0.681 | 0.651 | 0.749 | 1.58 | 0.889 | 0.952 | 0.895 | 0.906 | 0.365 | 0.326 | 0.357 | 0.353 | 0.287
NCI-H1355 | 0.659 | 0.549 | 0.617 | 0.55 | 0.619 | 0.339 | 0.346 | 0.385 | 0.324 | 0.355 | 0.617 | 0.553 | 0.544 | 0.566 | 0.64 | 0.66 | 0.738 | 0.682 | 0.755
H3255 | 0.832 | 0.704 | 0.815 | 0.693 | 0.448 | 0.614 | 0.58 | 0.639 | 0.546 | 0.6 | 0.819 | 0.763 | 0.733 | 0.811 | 0.323 | 0.412 | 0.378 | 0.284 | 0.305
NCI-H1993 | 1.01 | 0.805 | 0.825 | 0.776 | 0.543 | 0.534 | 0.643 | 0.599 | 0.63 | 0.677 | 0.723 | 0.765 | 0.71 | 0.696 | 0.759 | 0.531 | 0.603 | 0.473 | 0.527
NCI-H1734 | 0.773 | 0.857 | 0.744 | 0.7 | 0.74 | 0.453 | 0.496 | 0.546 | 0.465 | 0.484 | 0.841 | 0.903 | 0.812 | 0.832 | 0.473 | 0.475 | 0.414 | 0.407 | 0.38
HOP-62 | 0.635 | 0.688 | 0.644 | 0.555 | 0.644 | 0.18 | 0.22 | 0.246 | 0.193 | 0.226 | 0.682 | 0.661 | 0.591 | 0.694 | 0.64 | 0.587 | 0.66 | 0.659 | 0.607
LOU-NH91 | 0.899 | 0.828 | 1 | 0.767 | 0.794 | 0.821 | 0.788 | 0.891 | 0.73 | 0.779 | 0.899 | 0.936 | 0.917 | 0.903 | 0.564 | 0.575 | 0.543 | 0.537 | 0.337
ChaGo-K-1 | 0.758 | 0.757 | 0.777 | 0.724 | 0.776 | 0.483 | 0.5 | 0.559 | 0.487 | 0.533 | 0.627 | 0.787 | 0.701 | 0.742 | 0.621 | 0.636 | 0.55 | 0.58 | 0.6
PC-14 | 0.68 | 0.742 | 0.722 | 0.556 | 0.461 | 0.25 | 0.2 | 0.222 | 0.197 | 0.29 | 0.86 | 0.616 | 0.697 | 0.7 | 0.243 | 0.292 | 0.28 | 0.237 | 0.301
NCI-H1437 | 0.812 | 0.794 | 0.955 | 0.791 | 0.952 | 0.558 | 0.541 | 0.564 | 0.611 | 0.627 | 0.734 | 0.669 | 0.616 | 0.677 | 0.381 | 0.359 | 0.391 | 0.385 | 0.354
NCI-H460 | 0.722 | 0.857 | 0.757 | 0.64 | 0.767 | 0.529 | 0.398 | 0.493 | 0.465 | 0.513 | 0.657 | 0.634 | 0.611 | 0.647 | 0.526 | 0.461 | 0.533 | 0.45 | 0.516
NCI-H1666 | 1.02 | 1.07 | 0.986 | 1 | 0.942 | 0.71 | 0.657 | 0.809 | 0.834 | 0.735 | 1.08 | 0.944 | 1.01 | 1.05 | 0.847 | 0.99 | 0.833 | 0.819 | 0.771
NCI-H1651 | 0.553 | 0.606 | 0.613 | 0.52 | 0.632 | 0.582 | 0.608 | 0.652 | 0.597 | 0.663 | 0.543 | 0.59 | 0.661 | 0.612 | 0.43 | 0.402 | 0.412 | 0.396 | 0.454
NCI-H1755 | 0.725 | 0.66 | 0.637 | 0.762 | 0.841 | 0.727 | 0.753 | 0.673 | 0.669 | 0.722 | 0.751 | 0.867 | 0.79 | 0.844 | 0.432 | 0.419 | 0.423 | 0.42 | 0.42
NCI-H661 | 0.787 | 0.788 | 0.788 | 0.742 | 0.735 | 0.504 | 0.591 | 0.513 | 0.561 | 0.543 | 0.82 | 0.843 | 0.784 | 0.774 | 0.996 | 0.86 | 0.9 | 0.751 | 0.764
HARA | 0.487 | 0.488 | 0.638 | 0.44 | 0.532 | 0.508 | 0.486 | 0.656 | 0.551 | 0.498 | 0.333 | 0.767 | 0.304 | 0.439 | 0.239 | 0.239 | 0.245 | 0.218 | 0.288
NCI-H596 | 0.569 |  | 0.553 | 0.58 | 0.633 | 1.05 |  | 0.961 | 0.929 | 1.03 | 0.646 | 0.716 | 0.558 | 0.7 | 0.641 | 0.67 | 0.563 | 0.48 | 0.554
NCI-H23 | 0.559 | 0.591 | 0.626 | 0.558 | 0.531 | 0.287 | 0.332 | 0.307 | 0.27 | 0.302 | 0.559 | 0.674 | 0.629 | 0.792 | 0.798 | 0.631 | 0.795 | 1.05 | 0.884
LCLC-97TM1 | 0.8 | 0.722 | 0.774 | 0.624 | 0.664 | 0.2 | 0.226 | 0.268 | 0.235 | 0.268 | 0.941 | 0.878 |  | 0.763 | 0.799 | 0.982 | 0.803 | 0.739 | 0.845
EPLC-272H | 0.507 | 0.426 | 0.573 | 0.393 | 0.571 | 0.413 | 0.378 | 0.349 | 0.347 | 0.356 | 0.623 | 0.427 | 0.477 | 0.358 | 0.357 | 0.413 | 0.382 | 0.334 | 0.397
NCI-H522 | 0.944 | 0.911 | 0.853 | 0.847 | 0.938 | 0.656 | 0.675 | 0.682 | 0.679 | 0.716 | 0.911 | 0.851 | 0.963 | 0.977 | 0.796 | 0.949 | 0.845 | 0.718 | 0.998
NCI-H1915 | 0.57 | 0.526 | 0.474 | 0.513 | 0.5 | 0.254 | 0.252 | 0.258 | 0.248 | 0.248 | 0.487 | 0.564 | 0.537 | 0.515 | 0.295 | 0.309 | 0.324 | 0.302 | 0.368
NCI-H2405 | 0.811 | 0.838 | 0.913 | 0.854 | 1.06 | 0.782 | 0.75 | 0.721 | 0.692 | 0.647 | 1.02 | 1.06 | 1.18 | 0.917 | 0.199 | 0.216 | 0.216 | 0.214 | 0.213
NCI-H322M | 0.75 | 0.724 | 0.754 | 0.702 | 0.869 | 0.785 | 0.721 | 0.617 | 0.593 | 0.575 | 0.884 | 0.868 | 1.05 | 0.913 | 0.246 | 0.233 | 0.245 | 0.264 | 0.271
NCI-H2170 | 0.841 | 0.764 | 0.836 | 0.699 | 0.85 | 0.503 | 0.445 | 0.475 | 0.454 | 0.53 | 0.842 | 0.731 | 0.651 | 0.601 | 0.566 | 0.532 | 0.57 | 0.535 | 0.516
SW 900 | 0.524 | 0.503 | 0.386 | 0.312 | 0.569 | 0.425 | 0.442 | 0.502 | 0.484 | 0.42 |  | 0.461 |  | 0.589 | 0.731 | 0.527 | 0.566 | 0.544 | 0.538
NCI-H1395 | 0.575 | 0.517 | 0.597 | 0.525 | 0.52 | 0.819 | 0.735 | 0.742 | 0.583 | 0.677 | 0.662 | 0.678 | 0.645 | 0.939 | 0.448 | 0.387 | 0.395 | 0.393 | 0.386
NCI-H358 | 0.766 | 0.691 | 0.787 | 0.629 | 0.662 | 0.234 | 0.191 | 0.221 | 0.207 | 0.201 |  | 0.644 | 0.528 | 0.667 | 0.196 | 0.19 | 0.169 | 0.135 | 0.183
NCI-H838 | 0.728 | 0.786 | 0.722 | 0.685 | 0.711 | 0.452 | 0.416 | 0.482 | 0.44 | 0.497 | 0.741 | 0.776 | 0.723 | 0.673 | 0.29 | 0.267 | 0.283 | 0.296 | 0.279
